Measured values taken from patent US20080146500A1, “Selective Vpac2 Receptor Peptide Agonists” (priority 2004, published 2008).
Read-outs that look alike come from different tables or passages of the source. Ends that are not written are not given here.

Legend:
[1] = Pharmacokinetic profiles of PEGylated peptides, plasma peptide by RIA; assay type: in vivo, Fisher 344 rats; settings: Fisher 344 rats, 100 μg compound/kg, plasma RIA, mean N = 3
Protocol: Pharmacokinetic profiles of PEGylated peptides. Healthy Fisher 344 rats (3 animals per group) are injected with 100 μg compound/kg (compound amount based on peptide content and dissolved in PBS buffer). […] PK parameters are then calculated using a model-independent method (WinNonlin Pro, Pharsight Corp., Mountain View, Calif., USA).

human PAC1 = molecular target: T1, human PAC1 (Homo sapiens, UniProt P41586); experiment: Filter binding assay, membranes from cells transiently transfected with human PAC1, 125I-labeled PACAP-27 tracer; settings: read-out: Human receptor binding (IC50; nM) PAC1
T1 construct: expressed in transfected cells
T1 sequence (P41586 21-468): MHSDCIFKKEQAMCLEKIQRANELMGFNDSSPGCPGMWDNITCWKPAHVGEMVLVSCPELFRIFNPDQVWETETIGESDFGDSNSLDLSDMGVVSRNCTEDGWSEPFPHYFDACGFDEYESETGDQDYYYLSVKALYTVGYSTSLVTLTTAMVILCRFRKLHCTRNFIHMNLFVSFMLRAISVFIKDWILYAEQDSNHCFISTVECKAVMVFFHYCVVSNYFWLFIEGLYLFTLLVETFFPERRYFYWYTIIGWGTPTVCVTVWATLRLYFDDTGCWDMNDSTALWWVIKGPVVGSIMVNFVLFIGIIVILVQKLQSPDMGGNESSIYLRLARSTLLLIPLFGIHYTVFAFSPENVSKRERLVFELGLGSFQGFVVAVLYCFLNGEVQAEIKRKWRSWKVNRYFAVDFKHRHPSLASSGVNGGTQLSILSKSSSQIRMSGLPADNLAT
Protocol: For this assay, the solutions and equipment include:
Presoak solution: 0.5% Polyethyleneamine in Aqua dest.
Buffer for flushing filter plates: 25 mM HEPES pH 7.4
Blocking buffer: 25 mM HEPES pH 7.4; 0.2% protease free BSA
Assay buffer: 25 mM HEPES pH 7.4; 0.5% protease free BSA
Dilution and assay plate: PS-Microplate, U form
Filtration Plate Multiscreen FB Opaque Plate; […] Type B Glasfiber filter
In order to prepare the filter plates, the presoak solution is aspirated by vacuum filtration. The plates are flushed twice with 200 μL flush buffer. 200 μL blocking buffer is added to the filter plate. The filter plate is then incubated with 200 μL presoak solution for 1 hour at room temperature.
The assay plate is filled with […] (2.5 μg) suspended in assay buffer, 25 μL compound (agonist) in assay buffer, and 25 μL tracer (about 40000 cpm) in assay buffer. The filled plate is incubated for 1 hour with shaking.
The transfer from assay plate to filter plate is conducted. The blocking buffer is aspirated by vacuum filtration and washed two times with flush buffer. 90 μL is transferred from the assay plate to the filter plate. The 90 μL transferred from assay plate is aspirated and washed three times with 200 μL flush buffer. The plastic support is removed. It is dried for 1 hour at 60° C. 30 μL Microscint is added. The count is performed.
Values reported are single results or the mean of two or more independent runs.

[2] = Rat serum stability at 37 C, remaining active peptide estimated by EC50,4C/EC50,37C in CHO-VPAC2 cAMP assay; settings: for Estimated serum stability (%): after 24 h in rat serum at 37 C
Protocol: The rat serum is stored at 4° C. until use and is used within two weeks.
On Day 0, two 100 μL aliquots of 10 μM peptide in rat serum are prepared by adding 10 μL peptide stock to 90 μL rat serum for each aliquot. 250 kIU aprotinin/mL is added to one of these aliquots. The aliquot is stored with aprotinin at 4° C. The aliquot is stored without aprotinin at 37° C. The aliquots are incubated for […].
On Day 1, after incubation of the aliquots prepared on day 0 for 24 hours, an incubation buffer containing PBS+1.3 mM CaCl2, 1.2 mM MgCl2, 2 mM glucose, and 0.25 mM IBMX is prepared. A plate with 11 serial 5× dilutions of peptide for the 4° C. and 37° C. aliquot is prepared for each peptide studied. […] The plate(s) are washed with cells twice in incubation buffer. The plates are allowed to hold 50 μL incubation media per well for 15 minutes. 50 μL solution per well is transferred to the cells from the plate prepared with 11 serial 5× dilutions of peptide for the 4° C. and 37° C. aliquot for each peptide studied, using the maximal concentrations that are indicated by the primary screen, in duplicate. This step dilutes the peptide concentration by a factor of two. The cells are incubated at room temperature for 30 minutes. The supernatant is removed. 40 μL/well of the DiscoveRx antibody/extraction buffer is added. The cells are incubated on the shaker (300 rpm) for 1 hour. Normal procedure with the DiscoveRx kit is followed. cAMP standards are included in column 12. EC50 values are determined from the cAMP assay data.

ZDF rats = experiment: Glucose lowering in conscious food-deprived diabetic ZDF rats; assay type: in vivo, rat
Protocol: Glucose lowering in diabetic ZDF rats. ZDF rats, 8-9 weeks old with fed glucose levels of approximately 300 mg/dl are used for this experiment. The animals are randomised into control (vehicle) and treatment group(s) on the day of the experiment and are conscious throughout the experiment. The compound is injected intravenously at the start of the experiment and blood samples are drawn from the tail vein immediately prior to compound injection and then 0.5, 1, 2, 3, 4 and 24 h after compound injection. The animals are deprived of food during the first 2 or 4 h of the experiment. The blood samples are collected in EDTA tubes, aprotinin added and immediately put on ice pending insulin and glucose analysis using standard methods.

[3] = values >100% may represent release of intact peptide from the PEG conjugate
[4] = 10 μg/kg iv, 0 h (immediately prior to injection)
[5] = 10 μg/kg iv, 0.5 h after injection
[6] = 10 μg/kg iv, 1 h after injection
[7] = 10 μg/kg iv, 2 h after injection
[8] = 10 μg/kg iv, 4 h after injection (food access after 2 h)
[9] = 10 μg/kg iv, 24 h after injection (food access after 2 h)
[10] = 30 μg/kg iv, 0 h (immediately prior to injection)
[11] = 30 μg/kg iv, 0.5 h after injection
[12] = 30 μg/kg iv, 1 h after injection
[13] = 30 μg/kg iv, 2 h after injection
[14] = 30 μg/kg iv, 4 h after injection (food access after 2 h)
[15] = 30 μg/kg iv, 24 h after injection (food access after 2 h)
[16] = 100 μg/kg iv, 0 h (immediately prior to injection)
[17] = 100 μg/kg iv, 1 h after injection
[18] = 100 μg/kg iv, 2 h after injection
[19] = 100 μg/kg iv, 3 h after injection
[20] = 100 μg/kg iv, 4 h after injection
[21] = 100 μg/kg iv, 24 h after injection (food access after 4 h)

With “C6-HDAVFTEQY(OMe)TOrnLRAibQVAAAibOrnYLQSIOrnOrnGGPSSGAPPPC(PEG60K)-NH2 [Agonist P404]” the AUC0-last [1] was 6070 ng·h/mL, the Cl/F [1] was 0.283 mL/min/kg and the Cmax [1] was 133 ng/mL. For the same substance, the Tmax [1] was 20 h, the T½ [1] was 23 h and the IC50 (human PAC1) was over 25000 nM. The “Estimated serum stability (%)” value [2, 3] was 320.7%.

Work on “C6-HSDAVFTDNYTOrnLRAibQVAAAibKYLQC(PEG40K)IOrnNOrnGGPSSGAPPPS (HSDAVFTDNYTXLRXQVAAXKYLQCIXNXGGPSSGAPPPS; non-natural residues) [Agonist P373]” yielded an AUC0-last [1] of 10803 ng·h/mL, a Cl/F [1] of 0.167 mL/min/kg and a Cmax [1] of 240 ng/mL. For the same substance, the Tmax [1] was 13 h, the T½ [1] was 31 h and the IC50 (human PAC1) was over 25000 nM. The “Estimated serum stability (%)” value [2, 3] was 73.6% and the “Estimated 72 h stability (%)” value ([2]; after 72 h in rat serum at 37 C, values >100% may represent release of intact peptide from the PEG conjugate) was 47.1%.

“C6-HSDAVFTEQY(OMe)TOrnLRAibQVAK(CO(CH2)2SPEG40K)AibOrnYLQSIOrnOrnGGPSSGAPPPS-NH2 (HSDAVFTEQYTXLRXQVAXXXYLQSIXXGGPSSGAPPPS; non-natural residues) [Agonist P432]” gave an AUC0-last [1] of 21471 ng·h/mL, a Cl/F [1] of 0.083 mL/min/kg and a Cmax [1] of 392 ng/mL. It also gave a Tmax [1] of 16 h, a T½ [1] of 35 h and an IC50 (human PAC1) of over 25000 nM. The “Estimated serum stability (%)” value [2, 3] was 102.1%.

With “P137: PEGylated material obtained from P120 and methoxy-PEG2-MAL-40K (HSDAVFTDNYTRLRKQVAAKKYLQSIKNKRYGGPSSGAPPPC; also: PEGylated with methoxy-PEG2-MAL-40K, site not given here) [Agonist P137]” the glucose (ZDF rats; [4]) was 344 mg/dL, the insulin (ZDF rats; [4]) was 12.5 ng/mL and the glucose (ZDF rats; [5]) was 277 mg/dL. For the same substance, the insulin (ZDF rats; [5]) was 21.2 ng/mL, the glucose (ZDF rats; [6]) was 244 mg/dL and the insulin (ZDF rats; [6]) was 18.5 ng/mL. It also gave a glucose (ZDF rats; [7]) of 199 mg/dL, an insulin (ZDF rats; [7]) of 20.0 ng/mL and a glucose (ZDF rats; [8]) of 361 mg/dL. The insulin (ZDF rats; [8]) was 18.5 ng/mL, the glucose (ZDF rats; [9]) was 336 mg/dL and the insulin (ZDF rats; [9]) was 15.0 ng/mL. The glucose (ZDF rats; [10]) was 329 mg/dL, the insulin (ZDF rats; [10]) was 10.9 ng/mL and the glucose (ZDF rats; [11]) was 254 mg/dL. The insulin (ZDF rats; [11]) was 27.0 ng/mL, the glucose (ZDF rats; [12]) was 218 mg/dL and the insulin (ZDF rats; [12]) was 23.7 ng/mL. The glucose (ZDF rats; [13]) was 156 mg/dL, the insulin (ZDF rats; [13]) was 23.1 ng/mL and the glucose (ZDF rats; [14]) was 347 mg/dL. The insulin (ZDF rats; [14]) was 20.8 ng/mL, the glucose (ZDF rats; [15]) was 347 mg/dL and the insulin (ZDF rats; [15]) was 16.0 ng/mL. The glucose (ZDF rats; [16]) was 307 mg/dL, the insulin (ZDF rats; [16]) was 17.8 ng/mL and the glucose (ZDF rats; [17]) was 362 mg/dL. For the same substance, the insulin (ZDF rats; [17]) was 19.9 ng/mL, the glucose (ZDF rats; [18]) was 360 mg/dL and the insulin (ZDF rats; [18]) was 15.9 ng/mL. For the same substance, the glucose (ZDF rats; [19]) was 323 mg/dL, the insulin (ZDF rats; [19]) was 15.4 ng/mL and the glucose (ZDF rats; [20]) was 304 mg/dL. The insulin (ZDF rats; [20]) was 15.1 ng/mL, the glucose (ZDF rats; [21]) was 400 mg/dL and the insulin (ZDF rats; [21]) was 11.1 ng/mL. For the same substance, the IC50 (human PAC1) was over 25000 nM and the “Estimated 72 h stability (%)” value [2] was 52.8%.
